Results taken from patent US9145354B2, “Pharmaceutical compounds” (priority 2011, dated 2015).
Structures can show the parent of a compound that is named as a salt. Where two headings read alike, the source gives them in different places.

Target: full length NS3/4a (Hepatitis C virus genotype 1b (isolate BK) (HCV), UniProt P26663)
Assay: NS3 Protease Assay (Example A), FRET-based
Format: biochemical
Description: The HCV NS3 protease functions have been extensively studied and are considered as potential targets for antiviral therapy: see for example the many references listed in the introductory section of this application. Therefore, the activity of the compounds of the invention as anti-HCV agents was assessed using a full length HCV NS3 protease.
The protease activity of the full length NS3/4a was measured using a FRET-based assay utilizing a peptide substrate derived from the NS4A/B cleavage site (Anaspec) and labelled at one end with a quencher (QXL520) and at the other with a fluorophore (5-FAMsp). NS3/4a (produced in-house by literature methods) was incubated with test compounds and peptide substrate in 50 mM Tris pH8, 20 mM DTT, 1% CHAPS, 10% glycerol and 5% DMSO. The reaction was followed by monitoring the change in fluorescence on a Molecular Devices Gemini plate reader for 30 minutes at room temperature. Initial rates were calculated from the progress curves using SoftMax Pro (Molecular Devices). IC50 values were then calculated from replicate curves using Prism GraphPad software.

[1] = read-out: IC50 against the protease activity of the full length NS3/4a
[2] = HCV NS3 protease assay, full length NS3/4a, read-out: Assay A IC50 (μM) average
[3] = stated as IC50 less than 30 μM or at least 40% inhibition at a concentration of 100 μM, read-out: IC50 against the protease activity of the full length NS3/4a

Chain of full length NS3/4a (P26663 1027-1657): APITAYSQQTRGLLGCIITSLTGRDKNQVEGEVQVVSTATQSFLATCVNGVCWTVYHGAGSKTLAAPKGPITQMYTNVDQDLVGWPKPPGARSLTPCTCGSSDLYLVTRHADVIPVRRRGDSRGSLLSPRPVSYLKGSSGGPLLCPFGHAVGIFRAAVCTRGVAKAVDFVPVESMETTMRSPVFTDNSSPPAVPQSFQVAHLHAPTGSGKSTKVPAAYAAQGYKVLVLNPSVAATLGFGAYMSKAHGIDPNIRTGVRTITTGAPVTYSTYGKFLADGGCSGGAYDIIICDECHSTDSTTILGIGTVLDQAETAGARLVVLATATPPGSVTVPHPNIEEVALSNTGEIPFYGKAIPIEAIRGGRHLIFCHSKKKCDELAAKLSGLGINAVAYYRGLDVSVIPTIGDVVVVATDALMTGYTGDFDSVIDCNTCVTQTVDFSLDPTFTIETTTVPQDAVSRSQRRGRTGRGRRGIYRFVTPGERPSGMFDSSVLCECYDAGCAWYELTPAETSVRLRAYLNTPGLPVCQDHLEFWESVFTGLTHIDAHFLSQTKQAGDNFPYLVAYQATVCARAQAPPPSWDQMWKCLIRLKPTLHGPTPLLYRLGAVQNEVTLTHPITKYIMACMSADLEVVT

SMILES | IC50 [1] [µM] | IC50 [2] [µM] | further results
CC[C@@H](N)c1ccc(Cl)c(C(=O)c2ccc(C#N)nc2)c1F [Example 34, 5-({3-[(1R)-1-aminopropyl]-6-chloro-2-fluorophenyl}carbonyl)pyridine-2-carbonitrile] | 1 to 5 | – | inhibition at 3 µM: 55%
CC[C@@H](N)c1ccc(Cl)c(C(=O)c2ccc(N(C)C)nc2)c1F [Example 35, 5-({3-[(1R)-1-aminopropyl]-6-chloro-2-fluorophenyl}carbonyl)-N,N-dimethylpyridin-2-amine] | – | – | inhibition at 10 µM: 30%
CC[C@@H](N)c1ccc(Cl)c(C(=O)c2ccc(NC)nc2)c1F [Example 36, 5-({3-[(1R)-1-aminopropyl]-6-chloro-2-fluorophenyl}carbonyl)-N-methylpyridin-2-amine] | < 1 | 0.71 | –
CC[C@@H](N)c1ccc(Cl)c(C(=O)c2ccc(-n3cccn3)nc2)c1F [Example 37, (1R)-1-(4-chloro-2-fluoro-3-{[6-(1H-pyrazol-1-yl)pyridin-3-yl]carbonyl}phenyl)propan-1-amine] | < 1 | 0.49 | –
CC[C@@H](N)c1ccc(Cl)c(C(=O)c2ccc(=O)[nH]c2)c1F [Example 38, 5-({3-[(1R)-1-aminopropyl]-6-chloro-2-fluorophenyl}carbonyl)-1,2-dihydropyridin-2-one] | 1 to 5 | 3.6 | –
CC[C@@H](N)c1ccc(C)c(C(=O)c2ccccc2)c1F [Example 39, (1R)-1-(3-benzoyl-2-fluoro-4-methylphenyl)propan-1-amine] | < 1 | 0.73 | –
CC[C@@H](N)c1ccc(OC)c(C(=O)c2ccccc2)c1F [Example 40, (1R)-1-(3-benzoyl-2-fluoro-4-methoxyphenyl)propan-1-amine] | < 1 | 0.84 | –
CC[C@@H](N)c1ccc(Cl)c(C(=O)c2cc[n+]([O-])cc2)c1F [Example 42, [3-((R)-1-Amino-propyl)-6-chloro-2-fluoro-phenyl]-(1-oxy-pyridin-4-yl)-methanone] | < 1 | 0.53 | –
CC[C@@H](N)c1ccc(F)c(C(=O)c2ccccc2)c1F [Example 43, (1R)-1-(3-benzoyl-2,4-difluorophenyl)propan-1-amine] | < 1 | 0.74 | –
CC[C@@H](N)c1ccc(O)c(C(=O)c2ccccc2)c1F [Example 44, 4-[(1R)-1-aminopropyl]-2-benzoyl-3-fluorophenol] | – | – | inhibition at 100 µM (@ 100 uM): 30%
CC[C@@H](N)c1ccc(Cl)c(C(=O)c2cncc(N)c2)c1F [Example 45, 5-({3-[(1R)-1-aminopropyl]-6-chloro-2-fluorophenyl}carbonyl)pyridin-3-amine] | – | – | inhibition at 10 µM: 50%; IC50 [3]: < 30 µM
CC[C@@H](N)c1ccc(Cl)c(C(=O)c2ccc(-n3cc(CO)cn3)nc2)c1F [Example 46, {1-[5-({3-[(1R)-1-aminopropyl]-6-chloro-2-fluorophenyl}carbonyl)pyridin-2-yl]-1H-pyrazol-4-yl}methanol] | – | – | inhibition at 10 µM: 64%; IC50 [3]: < 30 µM
Nc1ccc(C(=O)c2c(Cl)ccc([C@H](N)C3CC3)c2F)cn1 [Example 47, 5-({3-[(R)-amino(cyclopropyl)methyl]-6-chloro-2-fluorophenyl}carbonyl)pyridin-2-amine] | < 1 | 0.18 | –
CC[C@@H](N)c1ccc(Cl)c(C(=O)c2ccc(COC(C)=O)cc2)c1F [Example 49, [4-({3-[(1R)-1-aminopropyl]-6-chloro-2-fluorophenyl}carbonyl)phenyl]methyl acetate] | < 1 | 0.15 | –
CC[C@@H](N)c1ccc(Cl)c(C(=O)c2ccc(CO)cc2)c1F [Example 50, [4-({3-[(1R)-1-aminopropyl]-6-chloro-2-fluorophenyl}carbonyl)phenyl]methanol] | < 1 | 0.21 | –
CC[C@@H](N)c1ccc(Cl)c(C(=O)c2cnc(SC)nc2)c1F [Example 51, (1R)-1-(4-chloro-2-fluoro-3-{[2-(methylsulfanyl)pyrimidin-5-yl]carbonyl}phenyl)propan-1-amine] | – | – | inhibition at 3 µM: 44%; IC50 [3]: < 30 µM
CC[C@@H](N)c1ccc(Cl)c(C(=O)c2ccnc(N)c2)c1F [Example 52, 4-({3-[(1R)-1-aminopropyl]-6-chloro-2-fluorophenyl}carbonyl)pyridin-2-amine] | < 1 | 0.77 | –
CC[C@@H](N)c1ccc(Cl)c(C(=O)c2cccc(CO)c2)c1F [Example 54, [3-({3-[(1R)-1-aminopropyl]-6-chloro-2-fluorophenyl}carbonyl)phenyl]methanol] | < 1 | 0.14 | –

SMILES | IC50 [1] [µM] | IC50 [2] [µM] | further results
CC[C@@H](N)c1ccc(Cl)c(C(=O)c2cn[nH]c2)c1F [Example 55, (1R)-1-{4-chloro-2-fluoro-3-[(1H-pyrazol-4-yl)carbonyl]phenyl}propan-1-amine] | 1 to 5 | 4.4 | –
Nc1cnc(C(=O)c2c(Cl)ccc([C@H](N)C3CC3)c2F)cn1 [Example 56, 5-({3-[(R)-amino(cyclopropyl)methyl]-6-chloro-2-fluorophenyl}carbonyl)pyrazin-2-amine] | < 1 | 0.6 | –
CC[C@@H](N)c1ccc(Cl)c(C(=O)c2cnc(NC)cn2)c1F [Example 57, 5-({3-[(1R)-1-aminopropyl]-6-chloro-2-fluorophenyl}carbonyl)-N-methylpyrazin-2-amine] | 1 to 5 | 4.6 | –
CC[C@@H](N)c1ccc(Cl)c(C(=O)c2ccc3c(n2)NC(=O)CO3)c1F [Example 58, 6-({3-[(1R)-1-aminopropyl]-6-chloro-2-fluorophenyl}carbonyl)-2H,3H,4H-pyrido[3,2-b][1,4]oxazin-3-one] | – | – | inhibition at 10 µM: 31%
CC[C@@H](N)c1ccc(Cl)c(C(=O)c2ccc3c(c2)OCC(=O)N3)c1F [Example 60, 7-({3-[(1R)-1-Aminopropyl]-6-chloro-2-fluorophenyl}-carbonyl)-3,4-dihydro-2H-1,4-benzoxazin-3-one] | < 1 | 0.55 | –
Nc1ccc(C(=O)c2c(Cl)ccc([C@H](N)C3CC3)c2F)nc1 [Example 61, 6-({3-[(R)-amino(cyclopropyl)methyl]-6-chloro-2-fluorophenyl}carbonyl)pyridin-3-amine] | 1 to 5 | 1.2 | –
N#Cc1ccc(C(=O)c2c(Cl)ccc([C@H](N)C3CC3)c2F)nc1 [Example 62, 6-({3-[(R)-amino(cyclopropyl)methyl]-6-chloro-2-fluorophenyl}carbonyl)pyridine-3-carbonitrile] | < 1 | 0.32 | –
CC[C@@H](N)c1ccc(Cl)c(C(=O)c2ccc([N+](=O)[O-])c(C)c2)c1F [Example 64, (1R)-1-{4-chloro-2-fluoro-3-[(3-methyl-4-nitrophenyl)carbonyl]phenyl}propan-1-amine] | – | – | inhibition at 0.1 µM (@ 0.1 uM): 44%
CC[C@@H](N)c1ccc(Cl)c(C(=O)c2ccc3c(c2)OCCN3)c1F [Example 65, (1R)-1-{4-chloro-3-[(3,4-dihydro-2H-1,4-benzoxazin-7-yl)carbonyl]-2-fluorophenyl}propan-1-amine] | – | 0.16 | –
CCC[C@@H](N)c1ccc(Cl)c(C(=O)c2ccc(N)nc2)c1F [Example 66, 5-({3-[(1R)-1-aminobutyl]-6-chloro-2-fluorophenyl}carbonyl)pyridin-2-amine] | – | 0.2 | –
C=CC[C@@H](N)c1ccc(Cl)c(C(=O)c2ccc(N)nc2)c1F [Example 67, 5-({3-[(1R)-1-aminobut-3-en-1-yl]-6-chloro-2-fluorophenyl}carbonyl)pyridin-2-amine] | – | 0.37 | –
N[C@@H](c1ccc(Cl)c(C(=O)c2ccc(CO)cc2)c1F)C1CC1 [Example 68, [4-({3-[(R)-amino(cyclopropyl)methyl]-6-chloro-2-fluorophenyl}-carbonyl)phenyl]methanol hydrochloride] | – | 0.21 | –
CC[C@@H](N[C@H](C)CC(N)=O)c1ccc(Cl)c(C(=O)c2ccc(N)nc2)c1F [Example 82, (3R)-3-{[(1R)-1-{3-[(6-aminopyridin-3-yl)carbonyl]-4-chloro-2-fluorophenyl}propyl]-amino}butanamide] | – | 0.83 | –
CC[C@@H](N[C@H](C)CC(N)=O)c1ccc(Cl)c(C(=O)c2ccccc2)c1F [Example 83, (3R)-3-{[(1R)-1-(3-benzoyl-4-chloro-2-fluorophenyl)propyl]-amino}butanamide] | – | 0.5 | –
CC[C@H](N[C@H](C)CC(N)=O)c1ccc(Cl)c(C(=O)c2ccccc2)c1F [Example 85, (3R)-3-{[(1S)-1-(3-benzoyl-4-chloro-2-fluorophenyl)-propyl]-amino}butanamide] | – | 0.061 | –
CC[C@H](N[C@@H](C)CC(N)=O)c1ccc(Cl)c(C(=O)c2ccccc2)c1F [Example 86, (3S)-3-{[(1S)-1-(3-benzoyl-4-chloro-2-fluorophenyl)-propyl]amino}butanamide] | 1 to 5 | 1 | –
CC[C@@H](N[C@H](C)CC(=O)NCCN)c1ccc(Cl)c(C(=O)c2ccccc2)c1F [Example 87, (3R)—N-(2-Aminoethvl)-3-{[(1R)-1-(3-benzoyl-4-chloro-2-fluorophenyl)propyl]-amino}butanamide] | – | – | inhibition at 0.01 µM (@ 0.01 uM): 54%
CC[C@H](N[C@@H](C)CC(=O)NCCN)c1ccc(Cl)c(C(=O)c2ccccc2)c1F [Example 89, (3S)-N-(2-aminoethyl)-3-{[(1S)-1-(3-benzoyl-4-chloro-2-fluorophenyl)propyl]-amino}butanamide] | – | – | inhibition at 0.03 µM (@ 0.03 uM): 54%
